Structures can show the parent of a compound that is named as a salt. Where two headings read alike, the source gives them in different places.
How the values were obtained:
DMS79 cells = experiment: Cell-growth inhibitory effects of LSD1 inhibitor on non-sensitive strain DMS79; type: cell-based, human; details: 10 days
Method: (§1) As a medium, 10% FBS-containing RPMI1640 was used. Cell lines were seeded in a 96-well flat-bottom microplate in an amount of 120 μL, and a well containing 160 μL of medium alone was also prepared for background measurement. […] After culture, the microplate was allowed to stand at room temperature for 30 minutes. To 160 μL of the cell culture solution or the medium containing no cells, 140 μL of CellTiter-Glo 2.0 Assay (Promega) was added. After the microplate was allowed to stand at room temperature for 10 minutes, the luminescence intensity of viable cells in each well was measured using a microplate reader (PerkinElmer, EnSpire). The IC35 of each drug was obtained in the same manner as above.

[1] = test system: NCI-H1417 cells (human small-cell lung cancer cell lines); experiment: Cell-growth inhibition test: NCI-H1417 cells; type: cell-based; details: read-out: IC50 (nM), Cell-Growth Inhibition Test: NCI-H1417 Cells
Method: (§2) Under the following conditions, an in vitro cell-growth inhibition test was performed with respect to HEL cells (human acute myelocytic leukemia cell lines), NCI-H1417 cells (human small-cell lung cancer cell lines), and NCI-H146 cells (human small-cell lung cancer cell lines).
(§3) The cells with the Example compound or with dimethylsulfoxide alone were cultured at 37° C. in a 5% carbon-dioxide-containing incubator for 5 days (HEL cells) or 10 days (NCI-H1417 cells and NCI-H146 cells). After culture, the plate was allowed to stand at room temperature for 30 minutes, and 100 μL of the supernatant was removed from each well to leave 100 μL of the cell culture solution. To each well containing the remaining 100 μL of the cell culture solution, the same amount of CellTiter-Glo 2.0 Assay (Promega, Cat #: G9242) was added. The microplate was shaken with a plate mixer for 1 minute and then allowed to stand in a dark place for 10 minutes. Thereafter, the luminescence intensity of viable cells in each well was measured using a microplate reader (PerkinElmer, EnSpire). […] Cell growth rate(%)=T/C×100 • T: The luminescence intensity in a well to which the test compound was added (count per second) • C: The luminescence intensity in a well to which dimethylsulfoxide alone was added (count per second)

NCI-H1417 cells = experiment: Cell-growth inhibitory effects of LSD1 inhibitor on sensitive strain NCI-H1417; type: cell-based, human; details: 10 days
Method: as §1

[2] = test system: NCI-H146 cells (human small-cell lung cancer cell lines); experiment: Cell-growth inhibition test: NCI-H146 cells; type: cell-based; details: NCI-H146 cells; read-out: IC50 (nM), Cell-Growth Inhibition Test: NCI-H146 Cells
Method: as §2, §3

[3] = test system: HEL cells (human acute myelocytic leukemia cell lines); experiment: Cell-growth inhibition test: HEL cells; type: cell-based; details: read-out: IC50 (nM), Cell-Growth Inhibition Test: HEL Cells
[4] = test system: NCI-H146 cells (human small-cell lung cancer cell lines); experiment: Antitumor effect test using NCI-H146 cells subcutaneously implanted into mice (T/C %); type: in vivo; details: NCI-H146 in BALB/cAJcl-nu/nu mice
Method: To 5 mice in each group, a vehicle (0.5% hydroxymethylpropylcellulose containing 0.1 N HCL) or each Example compound was orally administered. […] The major axis and the minor axis of each tumor were measured twice a week with an electric caliper to calculate the tumor volume (TV). According to the tumor volumes thus obtained, a relative tumor volume (RTV) and a relative tumor volume change (T/C (%)) were calculated. The TV, RTV, and T/C (%) were calculated using the following equations. Tumor volume TV(mm^3)=(major axis, mm)×(minor axis, mm)×(minor axis, mm)/2 Relative tumor volume RTV=TV/(TV on the grouping day) T/C(%)=(average RTV of administration group)/(average RTV of vehicle administration group)×100.
The final measurement day was the day following the final administration day.

Row | SMILES | IC50 [1] | IC50 [2] | IC50 [3] | further results
1 | CCC(O)(CC)Cn1nnc2cc(-c3ccc(C(=O)N4[C@@H]5CC[C@H]4[C@@H](N)C5)cc3-c3ccc(C#N)c(F)c3)c(F)c(F)c21 (single isomer, unassigned) [Example 214] | 0.47 nM | 2.58 nM | 0.44 nM | growth inhibitory effects (DMS79 cells): did not show growth inhibitory effects; growth inhibitory effects (NCI-H1417 cells): showed growth inhibitory effects
2 | CC(C)(O)Cc1ccc(-c2ccc(C(=O)N3[C@@H]4CC[C@H]3C[C@@H](N)C4)cc2-c2ccc(C#N)c(F)c2)c(F)c1 [Example 41, 4-[5-[(3-endo)-3-amino-8-azabicyclo[3.2.1]octane-8-carbonyl]-2-[2-fluoro-4-(2-hydroxy-2-methyl-propyl)phenyl]phenyl]-2-fluoro-benzonitrile] |  |  |  | growth inhibitory effects (DMS79 cells): did not show growth inhibitory effects; growth inhibitory effects (NCI-H1417 cells): showed growth inhibitory effects; T/C (%) ([4]; 25 mg/kg orally once a day, 21 consecutive days): 19%
3 | CC(C)(O)Cn1nnc2cc(-c3ccc(CN4[C@@H]5CC[C@H]4[C@@H](N)C5)cc3-c3ccc(C#N)c(F)c3)c(F)c(F)c21.Cl.Cl (single isomer, unassigned) [Example 285] |  |  |  | growth inhibitory effects (DMS79 cells): did not show growth inhibitory effects; growth inhibitory effects (NCI-H1417 cells): showed growth inhibitory effects
4 | CC(C)(O)CCn1ncc2cc(-c3ccc(C(=O)N4C5CCC4CC(N)C5)cc3-c3ccc(C#N)c(F)c3)c(F)cc21 (stereo not drawn) [Example 194, 5′-((3-endo)-3-amino-8-azabicyclo[3.2.1]octane-8-carbonyl)-3-fluoro-2′-(6-fluoro-1-(3-hydroxy-3-methylbutyl)-1H-indazol-5-yl)-[1,1′-biphenyl]-4-carbonitrile] | 5.63 nM | 11.3 nM | 15.5 nM | 
5 | CC(C)(O)Cn1ccc2cc(-c3ccc(CN4[C@@H]5CC[C@H]4[C@@H](N)C5)cc3-c3ccc(C#N)c(F)c3)c(F)cc21 (single isomer, unassigned) [Example 289, dihydrochloride] | 0.094 nM | 0.97 nM | 0.036 nM | 
6 | CCC(O)(CC)Cn1ncc2cc(-c3ccc(C(=O)N4C5CCC4CC(N)C5)cc3-c3ccc(C#N)c(F)c3)c(F)cc21 (stereo not drawn) [Example 205, 5′-((3-endo)-3-amino-8-azabicyclo[3.2.1]octane-8-carbonyl)-2′-(1-(2-ethyl-2-hydroxybutyl)-6-fluoro-1H-indazol-5-yl)-3-fluoro-[1,1′-biphenyl]-4-carbonitrile] | 6.25 nM | 15.1 nM | 4.95 nM | 
7 | Cn1ccc2cc(-c3ccc(C(=O)N4C5CCC4CC(N)C5)cc3-c3ccc(C#N)c(F)c3)ccc21 (stereo not drawn) [Example 18, 4-[5-[(3-exo)-3-amino-8-azabicyclo[3.2.1]octane-8-carbonyl]-2-(1-methylindol-5-yl)phenyl]-2-fluoro-benzonitrile] |  | 8.13 nM |  | IC50 ([1]; NCI-H1417 cells): 4.73 nM; IC50 ([3]; HEL cells): 3.55 nM
8 | CCC(O)(CC)Cn1ncc2cc(-c3ccc(C(=O)N4[C@@H]5CC[C@H]4[C@@H](N)C5)cc3-c3ccc(C#N)c(F)c3)c(F)cc21 (single isomer, unassigned) [Example 206] | 0.95 nM | 1.09 nM | 0.4 nM | 
9 | CCC(O)(CC)Cn1nnc2cc(-c3ccc(CN4[C@@H]5CC[C@H]4[C@@H](N)C5)cc3-c3ccc(C#N)c(F)c3)c(F)c(Cl)c21 (single isomer, unassigned) [Example 288, dihydrochloride] | 0.22 nM | 1.29 nM | 0.062 nM | 
10 | N#Cc1ccc(-c2cc(C(=O)N3[C@@H]4CC[C@H]3[C@@H](N)C4)ccc2-c2cc3nnn(CC4(O)CCC4)c3c(C(F)F)c2F)cc1F (single isomer, unassigned) [Example 260] | 0.13 nM | 0.48 nM | 0.13 nM | 
11 | CC(C)(O)Cn1nnc2cc(-c3ccc(CN4[C@@H]5CC[C@H]4[C@@H](N)C5)cc3-c3ccc(C#N)c(F)c3)c(F)c(F)c21.Cl.Cl (single isomer, unassigned) [Example 285, dihydrochloride] | 0.09 nM | 0.49 nM | 0.046 nM | 
12 | CC(C)(O)CC1OCc2cc(-c3ccc(C(=O)N4[C@@H]5CC[C@H]4[C@@H](N)C5)cc3-c3ccc(C#N)c(F)c3)c(F)cc21 (single isomer, unassigned) [Example 226] | 5.36 nM | 10.1 nM | 2.56 nM | 
13 | N#Cc1ccc(-c2cc(C(=O)N3C4CCC3CC(N)C4)ccc2-c2cc3nnn(CC4(O)CCC4)c3c(C(F)F)c2F)cc1F (stereo not drawn) [Example 262, 5′-((3-endo)-3-amino-8-azabicyclo[3.2.1]octane-8-carbonyl)-2′-(7-(difluoromethyl)-6-fluoro-1-((1-hydroxycyclobutyl)methyl)-1H-benzo[d][1,2,3]triazol-5-yl)-3-fluoro-[1,1′-biphenyl]-4-carbonitrile] | 0.7 nM | 3.1 nM | 0.93 nM | 
14 | CC(C)(O)Cn1nnc2cc(-c3ccc(C(=O)N4[C@@H]5CC[C@H]4C[C@@H](N)C5)cc3-c3ccc(C#N)c(F)c3)c(F)c(F)c21 [Example 161, 5′-((3-endo)-3-amino-8-azabicyclo[3.2.1]octane-8-carbonyl)-2′-(6,7-difluoro-1-(2-hydroxy-2-methylpropyl)-1H-benzo[d][1,2,3]triazol-5-yl)-3-fluoro-[1,1′-biphenyl]-4-carbonitrile] |  |  | 5.68 nM | T/C (%) ([4]; 40 mg/kg orally once a day, 28 consecutive days): 14%
15 | N#Cc1ccc(-c2cc(CN3[C@@H]4CC[C@H]3[C@@H](N)C4)ccc2-c2cc3nnn(CC4(O)CCC4)c3c(Cl)c2F)cc1F (single isomer, unassigned) [Example 286, dihydrochloride] | 0.083 nM | 0.17 nM | 0.036 nM | 
16 | N#Cc1ccc(-c2cc(C(=O)N3C4CCC3CC(N)C4)ccc2-c2cc3nnn(CC4(O)CCC4)c3c(C#N)c2F)cc1F (stereo not drawn) [Example 266, 5-(5-((3-endo)-3-amino-8-azabicyclo[3.2.1]octane-8-carbonyl)-4′-cyano-3′-fluoro-[1,1′-biphenyl]-2-yl)-6-fluoro-1-((1-hydroxycyclobutyl)methyl)-1H-benzo[d][1,2,3]triazole-7-carbonitrile] | 1.85 nM | 17.5 nM | 4.63 nM | 
17 | Cc1c(F)c(-c2ccc(C(=O)N3C4CCC3CC(N)C4)cc2-c2ccc(C#N)c(F)c2)cc2nnn(CC(C)(C)O)c12 (stereo not drawn) [Example 240, 5′-((3-endo)-3-amino-8-azabicyclo[3.2.1]octane-8-carbonyl)-3-fluoro-2′-(6-fluoro-1-(2-hydroxy-2-methylpropyl)-7-methyl-1H-benzo[d][1,2,3]triazol-5-yl)-[1,1′-biphenyl]-4-carbonitrile] | 2.55 nM | 4.81 nM | 4.2 nM | 
18 | CCC(O)(CC)Cn1nnc2cc(-c3ccc(C(=O)N4C5CCC4CC(N)C5)cc3-c3ccc(C#N)c(F)c3)c(F)c(Cl)c21 (stereo not drawn) [Example 220, 5′-((3-endo)-3-amino-8-azabicyclo[3.2.1]octane-8-carbonyl)-2′-(7-chloro-1-(2-ethyl-2-hydroxybutyl)-6-fluoro-1H-benzo[d][1,2,3]triazol-5-yl)-3-fluoro-[1,1′-biphenyl]-4-carbonitrile] | 1.03 nM | 1.81 nM | 1.09 nM | 
19 | N#Cc1ccc(-c2cc(C(=O)N3[C@@H]4CC[C@H]3[C@@H](N)C4)ccc2-c2cc3nnn(CC4(O)CCC4)c3c(C#N)c2F)cc1F (single isomer, unassigned) [Example 264] | 0.3 nM | 0.96 nM | 0.84 nM | 

From patent US12435128B2, “Method for predicting therapeutic effect of LSD1 inhibitor based on expression of INSM1” (TAIHO PHARMACEUTICAL CO., LTD., priority 2017, dated 2025)
